Results: patent US7595401B2, “Therapeutic compounds and their use in cancer” (Myriad Pharmaceuticals, Inc., priority 2006, dated 2009)

system: purified human Hsp90; experiment: Binding Assay: fluorescence polarization with BODIPY-labeled geldanamycin; settings: 5 μM compound, BODIPY-GM 10 nM, Hsp90 30 nM
Outline: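 Fluorescence polarization competition with BODIPY-geldanamycin (10 nM final) and human Hsp90 (30 nM final) in HEPES-KOH pH 7.3 buffer with molybdate, NP-40, DTT; 2% DMSO, overnight at room temperature. Read 485/530 nm; percent inhibition from mP normalized to DMSO controls, fluorescent-compound points excluded.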

Compound | % Inhibition at 5 μM Compound Concentration [%]
COc1ccc(OC)c(Sc2nc3c(N)ncnc3n2CCc2ccc(O)cc2)c1 [Example 76, 4-{2-[6-amino-8-(2,5-dimethoxy-phenylsulfanyl)-purin-9-yl]-ethyl}-phenol] | 6
CC(C)[C@@H]1C[C@H](CCn2cnc(N)c3nc(Sc4cc5c(cc4Br)OCO5)nc2-3)CCN1C(=O)OC(C)(C)C (relative stereo) [Example 430, tert-Butyl cis-4-(2-{6-amino-8-[(6-bromo-1,3-benzodioxol-5-yl)thio]-3H-purin-3-yl}ethyl)-2-isopropylpiperidine-1-carboxylate] | 15
CC(C)n1nnnc1N1CCC(CCn2cnc(N)c3nc(Sc4cc5c(cc4Br)OCO5)nc2-3)CC1 [Example 613, 8-[(6-Bromo-1,3-benzodioxol-5-yl)thio]-3-{2-[1-(1-isopropyl-1 H-tetrazol-5-yl)piperidin-4-yl]ethyl}-3 H-purin-6-amine] | 15.00
COc1ccc(Sc2nc3c(N)ncn(CCC4CCN(C(C)=O)CC4)c-3n2)cc1F [Example 568, 3-[2-(1-Acetylpiperidin-4-yl)ethyl]-8-[(3-fluoro-4-methoxyphenyl)thio]-3 H-purin-6-amine] | 0.00
COc1ccc(OC)c(Sc2nc3c(N)ncn(CCc4cccc(Cl)c4Cl)c-3n2)c1 [Example 74, 3-[2-(2,3-dichloro-phenyl)-ethyl]-8-(2,5-dimethoxy-phenylsulfanyl)-3H-purin-6-ylamine] | 0
COc1ccc(OC)c(Sc2nc3c(N)ncn(CC(c4ccc(Cl)cc4)C(C)C)c-3n2)c1 (centres unmarked) [Example 120, 3-[2-(4-chloro-phenyl)-3-methyl-butyl]-8-(2,5-dimethoxy-phenylsulfanyl)-3H-purine-6-ylamine] | 0
Nc1ncn(CCc2ccccc2C(F)(F)F)c2nc(Sc3cc4c(cc3Br)OCO4)nc1-2 [Example 291, 8-[(6-Bromo-1,3-benzodioxol-5-yl)thio]-3-{2-[2-(trifluoromethyl)phenyl]ethyl}-3H-purin-6-amine] | 0.0
C[C@H](NC(=O)OC(C)(C)C)C(=O)N1CCCC(Cn2cnc(N)c3nc(Sc4cc5c(cc4Br)OCO5)nc2-3)C1 (stereo partly drawn) [Example 779, tert-butyl {(1S)-2-[3-({6-amino-8-[(6-bromo-1,3-benzodioxol-5-yl)thio]-3H-purin-3-yl}methyl)piperidin-1-yl]-1-methyl-2-oxoethyl}carbamate] | 43.00
COc1ccc(OC)c(Sc2nc3c(N)ncn(CCc4cccc(C(F)(F)F)c4)c-3n2)c1 [Example 80, 8-(2,5-dimethoxy-phenylsulfanyl)-3-[2-(3-trifluoromethyl-phenyl)-ethyl]-3H-purin-6-ylamine] | 10
Nc1ncnc2c1nc(Sc1ccc3c(c1)OCO3)n2CCCc1ccccc1 [Example 6, 8-(Benzo[1,3]dioxol-5-ylsulfanyl)-9-(3-phenyl-propyl)-9H-purin-6-ylamine] | 66

same assay, conditions: BODIPY-GM 10 nM, Hsp90 30 nM

Compound | IC50 [µM]
CCCN1CCCCC1CCn1c(Sc2cc3c(cc2Br)OCO3)nc2c(N)ncnc21 (centres unmarked) [Example 386, 8-[(6-Bromo-1,3-benzodioxol-5-yl)thio]-9-[2-(1-propylpiperidin-2-yl)ethyl]-9H-purin-6-amine] | 0.11
CC(C)(C)OC(=O)CN1CCCCC1CCn1c(Sc2cc3c(cc2Br)OCO3)nc2c(N)ncnc21 (centres unmarked) [Example 645, tert-Butyl [2-(2-{6-amino-8-[(6-bromo-1,3-benzodioxol-5-yl)thio]-9 H-purin-9-yl}ethyl)piperidin-1-yl]acetate] | 0.45
CC1(C(=O)N2CCC(CCn3c(Sc4cc5c(cc4Br)OCO5)nc4c(N)ncnc43)CC2)CC1 [Example 516, 8-[(6-Bromo-1,3-benzodioxol-5-yl)thio]-9-(2-{1-[(1-methylcyclopropyl)carbonyl]piperidin-4-yl}ethyl)-9 H-purin-6-amine] | 0.6
CC(=O)N1CCC(CCn2c(Sc3nc4ccccc4s3)nc3c(N)ncnc32)CC1 [Example 659, 9-[2-(1-Acetylpiperidin-4-yl)ethyl]-8-(1,3-benzothiazol-2-ylthio)-9H-purin-6-amine] | 4
COc1ccc(OC)c(Sc2nc3c(N)ncnc3n2CCN2CCN(C(C)=O)CC2)c1 [Example 629, 9-[2-(4-Acetylpiperazin-1-yl)ethyl]-8-[(2,5-dimethoxyphenyl)thio]-9 H-purin-6-amine] | > 25
CC(C)(C)OC(=O)NC(CCn1c(Sc2cc3c(cc2Br)OCO3)nc2c(N)ncnc21)C1CCCCC1 (centres unmarked) [Example 670, tert-Butyl(3-{6-amino-8-[(6-bromo-1,3-benzodioxol-5-yl)thio]-9H-purin-9-yl}-1-cyclohexylpropyl)carbamate] | 1.6
CC(C)N1CCN(CCn2c(Sc3cc4c(cc3Br)OCO4)nc3c(N)ncnc32)CC1 [Example 487, 8-[(6-Bromo-1,3-benzodioxol-5-yl)thio]-9-[2-(4-isopropylpiperazin-1-yl)ethyl]-9H-purin-6-amine] | 0.9
COc1ccc(OC)c(Sc2nc3c(N)ncnc3n2CC2(c3ccc(Cl)cc3)CC2)c1 [Example 279, 9-{[1-(4-Chlorophenyl)cyclopropyl]methyl}-8-[(2,5-dimethoxyphenyl)thio]-9H-purin-6-amine] | > 25
COc1cc(Sc2nc3c(N)ncnc3n2CCc2ccc(Cl)cc2)cc(OC)c1OC [Example 31, 9-[2-(4-Chloro-phenyl)-ethyl]-8-(3,4,5-trimethoxy-phenylsulfanyl)-9H-purin-6-ylamine] | > 10
COC(=O)CCCNC(=O)N1CCC(CCn2c(Sc3cc4c(cc3Br)OCO4)nc3c(N)ncnc32)CC1 [Example 500, Methyl 4-({[4-(2-{6-amino-8-[(6-bromo-1,3-benzodioxol-5-yl)thio]-9H-purin-9-yl}ethyl)piperidin-1-yl]carbonyl}amino)butanoate] | 0.06
CC(C)[C@H](NC(=O)OC(C)(C)C)C(=O)N1CCCC(CCn2c(Sc3cc4c(cc3Br)OCO4)nc3c(N)ncnc32)C1 (stereo partly drawn) [Example 697, tert-Butyl((1S)-1-{[3-(2-{6-amino-8-[(6-bromo-1,3-benzodioxol-5-yl)thio]-9H-purin-9-yl}ethyl)piperidin-1-yl]carbonyl}-2-methylpropyl)-carbamate] | 0.6
Nc1ncnc2c1nc(Sc1cc3c(cc1Br)OCO3)n2CCc1ccccc1C(F)(F)F [Example 290, 8-[(6-Bromo-1,3-benzodioxol-5-yl)thio]-9-{2-[2-(trifluoromethyl)phenyl]ethyl}-9H-purin-6-amine] | 0.07
COc1ccc(OC)c(Sc2nc3c(N)ncnc3n2CCc2ccccc2F)c1 [Example 29, 8-(2,5-Dimethoxy-phenylsulfanyl)-9-[2-(2-fluoro-phenyl)-ethyl]-9H-purin-6-ylamine] | 0.15
Nc1ncnc2c1nc(Sc1ccc3c(c1)OCO3)n2CCCc1ccccc1 [Example 6, 8-(Benzo[1,3]dioxol-5-ylsulfanyl)-9-(3-phenyl-propyl)-9H-purin-6-ylamine] | 1.06
CCNC(=O)N1CCCC(CCn2c(Sc3cc4c(cc3Br)OCO4)nc3c(N)ncnc32)C1 (centres unmarked) [Example 435, 3-(2-{6-Amino-8-[(6-bromo-1,3-benzodioxol-5-yl)thio]-9H-purin-9-yl}ethyl)-N-ethylpiperidine-1-carboxamide] | 0.195
Nc1ncnc2c1nc(Sc1cc3c(cc1Br)OCO3)n2CCC1CCN(C(=O)OCc2ccccc2)CC1 [Example 409, Benzyl 4-(2-{6-amino-8-[(6-bromo-1,3-benzodioxol-5-yl)thio]-9H-purin-9-yl}ethyl)piperidine-1-carboxylate] | 0.13
